In publication PMC6791019, “(−)-Epigallocatechin-3-gallate derivatives combined with cisplatin exhibit synergistic inhibitory effects on non-small-cell lung cancer cells” (Cancer Cell International, 2019):

Experiments:
[1] = Transport across Caco-2 cell monolayers; format: in vitro ADME, human; details: human; for Papp A→B at 30 min, 50 μg/mL / Papp A→B at 60 min, 50 μg/mL / Papp B→A at 30 min, 50 μg/mL / Papp B→A at 60 min, 50 μg/mL: Caco-2, 50 μg/mL; for Papp A→B at 30 min, 50 μg/mL / Papp A→B at 60 min, 50 μg/mL: apical to basolateral; for Papp B→A at 30 min, 50 μg/mL / Papp B→A at 60 min, 50 μg/mL: basolateral to apical; for Papp: Caco-2, summary of Table 1, read-out: apparent permeability coefficients (Papp), range over directions and times
Description: (§1) Caco-2 cells were grown as epithelial monolayers, seeded onto fibrillar collagen-coated polyethylene terephthalate (PET) Corning transwell inserts (1.12 cm^2) with a pore size of 3 μm at a density of 2.0 × 10^5 cells/insert, and incubated at 37 °C in an atmosphere of 5% CO2 and 95% relative humidity in complete DMEM. The medium was replaced every 2 days with 0.5 mL medium in the apical (AP) side and 1.5 mL in the basolateral (BL) side over a period of 21 days. The integrity of the cell monolayer was determined by measuring the TEER (transepithelial electrical resistance) using an epithelial voltohmmeter (EVOM). The TEER values for each monolayer were measured every 2 days until they exceeded 350 Ω cm^2. To ensure the integrity of the Caco-2 monolayers, the TEER values were monitored before and after the experiments.
(§2) To measure the transport of EGCG and compound 3 across the Caco-2 cell monolayer, both sides of the transwell were equilibrated for 30 min with warm Hank’s balanced salt solution (HBSS). The transport buffer containing EGCG and compound 3 was added to either the apical (0.5 mL) or the basolateral (1.5 mL) side of the insert, while the receiving compartment contained the corresponding volume of transport buffer. After incubation for 30 or 60 min, 100 μL samples were taken from the receiving chamber and immediately replenished with an equal volume of pre-warmed HBSS. The samples were acidified with an equal volume of 5% formic acid and then frozen until LC–MS analysis.
(§3) The apparent permeability coefficients (Papp) of the compounds were calculated using the following equation: Papp=dQ/dt×1/A·C0, where dQ/dt is the amount of solute transported across the Caco-2 barrier in time dt, C0 is the solute concentration in the apical compartment at time zero, and A is the cross-sectional area of the epithelium in contact with the apical solution.

NCI-H441 cells [2] = test: MTT cell proliferation assay, NCI-H441; format: cell-based, human; details: 0-150 µM, 48 h
Description: (§4) The effects of the EGCG derivatives on the survival of NSCLC cells were determined using the MTT assay. A549, NCI-H441, and NCI-H1975 cells were seeded in 96-well plates (3 × 10^4 cells/well) and then treated with one of the EGCG derivatives alone (0, 30, 60, 90, 120, or 150 µM), cDDP alone (12 µM), or 12 μM cDDP plus one of the EGCG derivatives (100 µM) for 48 h. MTT was then added to the cells and the plates were incubated for a further 4 h. After removal of the culture medium, the produced MTT formazan crystals were dissolved with 150 µL DMSO and measured at 492 nm using a microplate reader. The percentage of inhibition was calculated as follows: inhibition ratio (IR, %) = (1 − OD(sample)/OD(control)) × 100%. The experiments were carried out in triplicate, and the IC50 (the concentration of drug that inhibits cell growth by 50%) values were determined.

A549 cells = test: MTT cell proliferation assay, A549; format: cell-based, human; details: 0-150 µM, 48 h
Description: as §4

NCI-H1975 cells = test: MTT cell proliferation assay, NCI-H1975; format: cell-based, human; details: 0-150 µM, 48 h
Description: as §4

NCI-H441 cells [3] = test: Cell cycle analysis by PI staining and flow cytometry; format: cell-based, human; details: NCI-H441, 0, 50, 100, 150 μM
Description: Aliquots of 5 × 10^5 cells were harvested, washed with phosphate-buffered saline (PBS), and then fixed in 70% ethanol at 4 °C overnight. After fixation, the cells were washed twice with cold PBS and stained in binding buffer containing 1 µg/mL of propidium iodide (BD Biosciences) and RNase for 0.5 h. The samples were then analyzed by flow cytometry (BD FACSCalibur).

NCI-H441 cells [4] = test: Annexin V-FITC/PI apoptosis assay by flow cytometry; format: cell-based, human; details: NCI-H441, 48 h
Description: Cell apoptosis was quantified using an annexin V/propidium iodide (PI) detection kit (BD Biosciences, PA, USA) and flow cytometry. Cells (5 × 10^5/well) were plated in six-well dishes and then treated with the EGCG derivatives with or without cDDP. After the treatment, the collected cells were incubated in 100 µL of binding buffer and 5 µL of FITC annexin V and 10 µL of PI were added to the suspension. The mixtures were gently vortexed and then incubated for 15 min at room temperature in the dark before performing the flow cytometry measurements (BD FACSCalibur) within 1 h.

[5] = system: EGFR signaling pathway in NCI-H441 cells; test: Western blotting of EGFR signaling pathway proteins; format: cell-based, human; details: NCI-H441, western blot after 12 h
Description: (§5) Samples containing equal amounts of proteins as indicated in the text were resolved by SDS polyacrylamide gel electrophoresis and transferred to PVDF membranes. The membranes were blocked with 5% BSA at room temperature for 1 h and then probed with primary antibodies overnight at 4 °C and incubated with the HRP-conjugated secondary antibodies for 1 h at room temperature. HRP was detected using the Pro-light HRP Chemiluminescent Kit (Tiangen Biotech, Beijing, China) and FluorChem E System (ProteinSimple, Santa Clara, CA, United States).

Caco-2 cell monolayers = test: Transport across Caco-2 cell monolayers; format: in vitro ADME, human; details: Caco-2, 50 µg/mL, A→B
Description: as §1, §2, §3

NCI-H441 xenograft = NCI-H441 xenograft model in nude mice; format: in vivo, BALB-C/nude mice; details: for tumor growth compared with the control: compound 3 200 mg/kg per day, cDDP 2 mg/kg per 2 days, i.p., nude mice
Description: Twenty-four male BALB-C/nude mice were purchased from the Cavens Lab Animal (Changzhou, China). The mice were subcutaneously injected in the dorsal with NCI-H441 cells (4 × 10^6/0.2 mL PBS per mouse). The mice were randomly divided into four groups, including control, compound 3, cDDP, and compound 3 plus cDDP (n = 6, per group). The mice were treated with compound 3 (200 mg/kg per day) and cDDP (2 mg/kg per 2 days) alone or in combination. All drugs were given through intra-peritoneal injection. Tumour size was measured once every 2 days with a calipre (volume mm^3 = length × width × width/2). Body weight was recorded once every 2 days. After there weeks of treatment, all mice were euthanized by cervical dislocation and the tumors were excised into formalin, and portion of the tumor fresh frozen in liquid nitrogen for further processing and analysis.
Three micrometer sections were cut, deparaffinized in xylenes, rehydrated in ethanol, and washed in phosphate-buffered saline. The antigen was retrieved at 95 °C for 20 min in 0.01 M citrate buffer (pH 6.0). Then incubated with primary antibodies overnight at 4 °C, followed by incubation with the secondary antibody at RT for 1 h. The immunostaining was performed using DAB, and counterstained with hematoxylin.

NCI-H441 cells [6] = test: Western blotting of cell cycle and apoptosis proteins; format: cell-based, human; details: NCI-H441, western blot, cDDP alone
Description: as §5

Papp A→B at 30 min, 50 μg/mL [1] [×10⁻⁶ cm/s] | Papp A→B at 60 min, 50 μg/mL [1] [×10⁻⁶ cm/s] | Papp B→A at 30 min, 50 μg/mL [1] [×10⁻⁶ cm/s] | Papp B→A at 60 min, 50 μg/mL [1] [×10⁻⁶ cm/s] | Papp [1] [×10⁻⁶ cm/s] | transepithelial transport rate, apical to basolateral, fold higher than EGCG (Caco-2 cell monolayers) [fold] | Structure (SMILES) | proliferation of NCI-H441 cells (NCI-H441 cells [2]) | proliferation of A549 cells (A549 cells) | proliferation of NCI-H1975 cells (NCI-H1975 cells) | cell cycle distribution, effect of increasing doses (NCI-H441 cells [3]) | number of apoptotic cells compared to untreated control (NCI-H441 cells [4]) | P-EGFR, P-AKT and P-ERK levels [5] | nude mouse body weight compared with the control group (NCI-H441 xenograft; compound 3 200 mg/kg per day i.p.) | tumor growth compared with the control (NCI-H441 xenograft) | levels of PCNA, p53, p21, cyclin D1 and cyclin E (NCI-H441 cells [6])
0.189 | 0.32 | 0.89 | 0.083 | 0.083 to 0.914 | – | O=C(O[C@@H]1Cc2c(O)cc(O)cc2O[C@@H]1c1cc(O)c(O)c(O)c1)c1cc(O)c(O)c(O)c1 [EGCG, (−)-epigallocatechin-3-gallate] | – | – | – | – | – | – | – | – | –
0.914 | 0.41 | 0.83 | 0.39 | 0.083 to 0.914 | 4.9 | O=C(O[C@@H]1Cc2c(OCc3cnnn3[C@@H]3O[C@H](CO)[C@@H](O)[C@H](O)[C@H]3O)cc(O)cc2O[C@@H]1c1cc(O)c(O)c(O)c1)c1cc(O)c(O)c(O)c1 [compound 3, (2R,3R)-7-Hydroxy-5-((1-((2R,3R,4S,5S,6R)-3,4,5-trihydroxy-6-(hydroxymethyl)tetrahydro-2H-pyran-2-yl)-1H-1,2,3-triazol-5-yl)methoxy)-2-(3,4,5-trihydroxyphenyl)chroman-3-yl 3,4,5-trihydroxybenzoate] | substantial dose-dependent growth inhibition | the same effect was not observed | the same effect was not observed | increased the proportion of cells in the S phase in a dose-dependent manner | significantly increased in a concentration-dependent manner | effectively inhibited these phosphorylation proteins in a dose-dependent manner | did not reduce the nude mouse body weight | reduced tumor growth | –
– | – | – | – | – | – | [NH2][Pt]([NH2])([Cl])[Cl] [cDDP, cisplatin] | – | – | – | – | – | – | – | reduced tumor growth | minimal effects
